Experimental data reported in US10544130B2, “Metallo-beta-lactamase inhibitors” (priority 2015, dated 2020).

Legend:
[1] = tested on: Pseudomonas aeruginosa PAO1 MB9798 (efflux+, IMP-1); conditions: ratio MITC95 PA 9798/MITC95 PA 9799; imipenem at 2 μg/mL
Method in brief: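 Isogenic PAO1 pair (efflux+ MB9798, efflux− MB9799, both IMP-1) tested by microbroth MIC with fixed imipenem and/or ceftazidime, usually at CLSI breakpoint, plus fixed class A/C inhibitor against AmpC. MBL inhibitor titrated; concentration restoring susceptibility recorded and fold difference between strains taken as efflux extent.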

[2] = tested on: Klebsiella pneumoniae expressing VIM-1 (IHMA599644); assay type: cell-based; conditions: with imipenem 1 μg/ml; 95% inhibition of bacterial growth
Method in brief: (§1)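 Growth read by absorbance after 22–24 h at 35 °C in CAMHB, with test compound alone or combined with 1 μg/ml imipenem. Inocula came from overnight 35 °C blood-agar colonies, set to a defined OD600 and diluted 1:100. Value is the inhibitor concentration giving synergy.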

[3] = tested on: Escherichia coli expressing NDM-1 (CLB30005, CLB30016); assay type: cell-based; conditions: with imipenem 1 μg/ml; 95% inhibition of bacterial growth
Method in brief: as §1

[4] = tested on: Serratia marcescens expressing IMP-1 (CL5741); assay type: cell-based; conditions: with imipenem 1 μg/ml; 95% inhibition of bacterial growth
Method in brief: as §1

Row | Structure (SMILES) | Efflux ratio [1] | Klebsiella pneumoniae (VIM-1) MITC95 [2] [µM] | Escherichia coli (NDM-1) MITC95 [3] [µM] | Serratia marcescens (IMP-1) MITC95 [4] [µM]
1 | NC[C@H](CO)NS(=O)(=O)c1ccc(-c2ccnc(N)c2)c(-c2nn[nH]n2)c1S(N)(=O)=O [Example 362, (R)—N1-(1-amino-3-hydroxypropan-2-yl)-4-(2-aminopyridin-4-yl)-3-(2H-tetrazol-5-yl)benzene-1,2-disulfonamide] | 2.00 | 3.125 | 1.563 | 1.563
2 | NCCNS(=O)(=O)c1ccc(-c2cccc3[nH]c([C@@H](N)CN)nc23)c(-c2nn[nH]n2)c1S(N)(=O)=O [Example 336, (S)—N1-(2-aminoethyl)-4-(2-(1,2-diaminoethyl)-1H-benzo[d]imidazol-4-yl)-3-(2H-tetrazol-5-yl)benzene-1,2-disulfonamide] | 2.00 | 3.125 | 1.563 | 3.125
3 | NCc1nc(-c2cccc(-c3ccc(S(=O)(=O)N[C@H]4CNC[C@H]4N)c(S(N)(=O)=O)c3-c3nn[nH]n3)c2)c[nH]1 [Example 462] |  | 1.563 | 1.563 | 1.563
4 | NCCNc1cc(-c2ccc(S(=O)(=O)NCCN)c(S(N)(=O)=O)c2-c2nn[nH]n2)ccn1 [Example 456, N1-(2-Aminoethyl)-4-(2-((2-aminoethyl)amino)pyridin-4-yl)-3-(2H-tetrazol-5-yl)benzene-1,2-disulfonamide] |  | 1.563 | 0.7813 | 0.7813
5 | NCC(=O)NC1C=C(c2ccc(S(=O)(=O)N[C@@H]3CCNC3)c(S(N)(=O)=O)c2-c2nn[nH]n2)CCC1 (stereo partly drawn) [Example 269, 2-Amino-N-(4′-(N—((R)-pyrrolidin-3-yl)sulfamoyl)-3′-sulfamoyl-2′-(2H-tetrazol-5-yl)-3,4,5,6-tetrahydro-[1,1′-biphenyl]-3-yl)acetamide] |  | 3.125 | 1.563 | 1.563
6 | NC[C@H](N)CNS(=O)(=O)c1ccc(-c2cccc(-c3c[nH]c(N)n3)c2)c(-c2nn[nH]n2)c1S(N)(=O)=O [Example 434, (S)-3′-(2-amino-1H-imidazol-4-yl)-N^4-(2,3-diaminopropyl)-2-(2H-tetrazol-5-yl)-[1,1′-biphenyl]-3,4-disulfonamide] |  | 1.563 | 0.7813 | 1.563
7 | NCCNCc1sc(N)nc1-c1cccc(-c2ccc(S(=O)(=O)N[C@@H]3CCNC3)c(S(N)(=O)=O)c2-c2nnn[nH]2)c1 [Example 433, (R)-3′-(2-amino-5-(((2-aminoethyl)amino)methyl)thiazol-4-yl)-N^4-(pyrrolidin-3-yl)-2-(1H-tetrazol-5-yl)-[1,1′-biphenyl]-3,4-disulfonamide] |  | 1.563 | 0.7813 | 1.563
8 | Cn1nnc2c(-c3ccc(S(=O)(=O)N[C@H]4CCNC4)c(S(N)(=O)=O)c3-c3nn[nH]n3)cccc21 [Example 293, (S)-4-(1-methyl-1H-benzo[d][1,2,3]triazol-4-yl)-N1-(pyrrolidin-3-yl)-3-(2H-tetrazol-5-yl)benzene-1,2-disulfonamide] |  | 3.125 | 3.125 | 3.125
9 | Nc1nc2c(-c3ccc(S(=O)(=O)N[C@@H]4CNC[C@H]4N)c(S(N)(=O)=O)c3-c3nn[nH]n3)cccc2[nH]1 [Example 424, 4-(2-amino-1H-benzo[d]imidazol-4-yl)-N^1-((3R,4R)-4-aminopyrrolidin-3-yl)-3-(2H-tetrazol-5-yl)benzene-1,2-disulfonamide] |  | 1.563 | 0.7813 | 1.563
10 | NCCNS(=O)(=O)c1ccc(-c2cccc(NC(=O)[C@@H](N)CN)c2)c(-c2nn[nH]n2)c1S(N)(=O)=O [Example 453, (S)-2,3-Diamino-N-(4′-(N-(2-aminoethyl)sulfamoyl)-3′-sulfamoyl-2′-(2H-tetrazol-5-yl)-[1,1′-biphenyl]-3-yl)propanamide] |  | 3.125 | 1.563 | 3.125
11 | NC[C@H]1CCN(S(=O)(=O)c2ccc(-c3cccc4[nH]c(N)nc34)c(-c3nn[nH]n3)c2S(N)(=O)=O)C1 [Example 253, (R)-3-(2-amino-1H-benzo[d]imidazol-4-yl)-6-((3-(aminomethyl)pyrrolidin-1-yl)sulfonyl)-2-(2H-tetrazol-5-yl)benzenesulfonamide] |  | 1.563 | 1.563 | 0.7813
12 | NCC(CN)NS(=O)(=O)c1ccc(-c2cccc(-c3cnc(N)[nH]3)n2)c(-c2nnn[nH]2)c1S(N)(=O)=O [Example 438, 4-(6-(2-Amino-1H-imidazol-5-yl)pyridin-2-yl)-N^1-(1,3-diaminopropan-2-yl)-3-(1H-tetrazol-5-yl)benzene-1,2-disulfonamide] |  | 3.125 | 3.125 | 3.125
13 | NCCNS(=O)(=O)c1ccc(-c2cccc(C(=O)N[C@@H]3CNC[C@H]3O)c2)c(-c2nn[nH]n2)c1S(N)(=O)=O [Example 344, 4′-(N-(2-aminoethyl)sulfamoyl)-N-((3R,4R)-4-hydroxypyrrolidin-3-yl)-3′-sulfamoyl-2′-(2H-tetrazol-5-yl)-[1,1′-biphenyl]-3-carboxamide] |  | 1.563 | 0.7813 | 1.563
14 | Nc1ncc(-c2cc(-c3ccc(S(=O)(=O)N[C@@H]4CCNC4)c(S(N)(=O)=O)c3-c3nnn[nH]3)ccn2)[nH]1 [Example 440, (R)-4-(2-(2-Amino-1H-imidazol-5-yl)pyridin-4-yl)-N^1-(pyrrolidin-3-yl)-3-(1H-tetrazol-5-yl)benzene-1,2-disulfonamide] |  | 1.563 | 0.7813 | 1.563
15 | Nc1nc2c(-c3ccc(S(=O)(=O)N[C@H]4CCNC4)c(S(N)(=O)=O)c3-c3nn[nH]n3)cc(F)cc2[nH]1 [Example 399, (S)-4-(2-amino-6-fluoro-1H-benzo[d]imidazol-4-yl)-N^1-(pyrrolidin-3-yl)-3-(2H-tetrazol-5-yl)benzene-1,2-disulfonamide] |  | 1.563 | 0.7813 | 1.563
16 | NCC(F)(F)c1nc2c(-c3ccc(S(=O)(=O)N[C@H]4CCNC4)c(S(N)(=O)=O)c3-c3nn[nH]n3)cccc2[nH]1 [Example 446, (S)-4-(2-(2-amino-1,1-difluoroethyl)-1H-benzo[d]imidazol-4-yl)-N1-(pyrrolidin-3-yl)-3-(2H-tetrazol-5-yl)benzene-1,2-disulfonamide] |  | 3.125 | 1.563 | 3.125
17 | NCCNC(=O)c1cc(Cl)cc(-c2ccc(S(=O)(=O)NCCN)c(S(N)(=O)=O)c2-c2nn[nH]n2)c1N [Example 447, 2-Amino-N-(2-aminoethyl)-4′-(N-(2-aminoethyl)sulfamoyl)-5-chloro-3′-sulfamoyl-2′-(2H-tetrazol-5-yl)-[1,1′-biphenyl]-3-carboxamide] |  | 1.563 | 0.7813 | 0.7813
18 | C[C@H](N)Cc1nc2c(-c3ccc(S(=O)(=O)N[C@@H]4CCNC4)c(S(N)(=O)=O)c3-c3nn[nH]n3)cccc2[nH]1 [Example 441, 4-(2-((S)-2-Aminopropyl)-1H-benzo[d]imidazol-4-yl)-N1-((R)-pyrrolidin-3-yl)-3-(2H-tetrazol-5-yl)benzene-1,2-disulfonamide] |  | 1.563 | 1.563 | 1.563
19 | NCCNC(=O)c1cc(-c2ccc(S(=O)(=O)NCCN)c(S(N)(=O)=O)c2-c2nn[nH]n2)ccc1N [Example 451, 4-Amino-N-(2-aminoethyl)-4′-(N-(2-aminoethyl)sulfamoyl)-3′-sulfamoyl-2′-(2H-tetrazol-5-yl)-[1,1′-biphenyl]-3-carboxamide] |  | 0.7813 | 0.7813 | 0.7813
20 | NCCNC(=O)c1cc(Cl)cc(-c2ccc(S(=O)(=O)N[C@@H]3CCNC3)c(S(N)(=O)=O)c2-c2nn[nH]n2)c1N [Example 450, (R)-2-Amino-N-(2-aminoethyl)-5-chloro-4′-(N-(pyrrolidin-3-yl)sulfamoyl)-3′-sulfamoyl-2′-(2H-tetrazol-5-yl)-[1,1′-biphenyl]-3-carboxamide] |  | 1.563 | 1.563 | 1.563
21 | NCC(CN)NS(=O)(=O)c1ccc(-c2cccc(-c3c[nH]c(N)n3)c2)c(-c2nn[nH]n2)c1S(N)(=O)=O [Example 435, 3′-(2-amino-1H-imidazol-4-yl)-N4-(1,3-diaminopropan-2-yl)-2-(2H-tetrazol-5-yl)-[1,1′-biphenyl]-3,4-disulfonamide] |  | 3.125 | 1.563 | 3.125
